Measured values published in ChEMBL document CHEMBL1201862, “PubChem BioAssay data set” (2004).
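Cultured in 96-well plates, cells were exposed to test compound for 48 hours across five concentrations. Here, GI50 denotes the concentration required for 50% inhibition of growth.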 Activity calls are given as the source filed them. No stated cut-off is given here; in the data, active = GI50 up to about 1.1 µM and inactive = higher.

Key:
Assay in all cases: NCI anticancer screen, dose series, 48 h
786-0 = system: 786-0
A498 = system: A498
A549 = system: A549
ACHN = system: ACHN
BT-549 = system: BT-549
CAKI-1 = system: CAKI-1
CCRF-CEM = system: CCRF-CEM
COLO 205 = system: COLO 205
DU-145 = system: DU-145
EKVX = system: EKVX
HCC 2998 = system: HCC 2998
HCT-116 = system: HCT-116
HCT-15 = system: HCT-15
HL-60 = system: HL-60
HOP-62 = system: HOP-62
HT-29 = system: HT-29
Hs-578T = system: Hs-578T
K562 = system: K562
KM12 = system: KM12
M14 = system: M14
MCF7 = system: MCF7
MDA-MB-231 = system: MDA-MB-231
MDA-MB-435 = system: MDA-MB-435
MDA-N = system: MDA-N
MOLT-4 = system: MOLT-4
Malme-3M = system: Malme-3M
NCI-H226 = system: NCI-H226
NCI-H23 = system: NCI-H23
NCI-H460 = system: NCI-H460
NCI-H522 = system: NCI-H522
NCI/ADR-RES = system: NCI/ADR-RES
OVCAR-3 = system: OVCAR-3
OVCAR-4 = system: OVCAR-4
OVCAR-5 = system: OVCAR-5
PC-3 = system: PC-3
RPMI-8226 = system: RPMI-8226
RXF 393 = system: RXF 393
SF-268 = system: SF-268
SF-295 = system: SF-295
SF-539 = system: SF-539
SK-MEL-28 = system: SK-MEL-28
SK-MEL-2 = system: SK-MEL-2
SK-MEL-5 = system: SK-MEL-5
SK-OV-3 = system: SK-OV-3
SN12C = system: SN12C
SNB-19 = system: SNB-19
SNB-75 = system: SNB-75
SR = system: SR
SW-620 = system: SW-620
T47D = system: T47D
TK-10 = system: TK-10
U-251 = system: U-251
UACC-257 = system: UACC-257
UACC-62 = system: UACC-62
UO-31 = system: UO-31
HOP-92 = system: HOP-92
IGROV-1 = system: IGROV-1
LOX IMVI = system: LOX IMVI
OVCAR-8 = system: OVCAR-8

## CCOC(=O)CCC(NC(=O)Cc1ccc(Nc2nc3ccccc3nc2-c2cccs2)cc1)C(=O)OCC (stereo not given)
786-0
  GI50: 29.6 µM (inactive)
A498
  GI50: 69.7 µM (inactive)
A549
  GI50: 64.1 µM (inactive)
ACHN
  GI50: > 100 µM (inactive)
BT-549
  GI50: > 100 µM (inactive)
CAKI-1
  GI50: > 100 µM (inactive)
CCRF-CEM
  GI50: > 100 µM (inactive)
COLO 205
  GI50: > 100 µM (inactive)
DU-145
  GI50: 44.2 µM (inactive)
EKVX
  GI50: 53.7 µM (inactive)
HCC 2998
  GI50: > 100 µM (inactive)
HCT-116
  GI50: > 100 µM (inactive)
HCT-15
  GI50: > 100 µM
HL-60
  GI50: > 100 µM (inactive)
HOP-62
  GI50: 31.9 µM (inactive)
HT-29
  GI50: > 100 µM (inactive)
Hs-578T
  GI50: 25.1 µM (inactive)
K562
  GI50: > 100 µM (inactive)
KM12
  GI50: > 100 µM (inactive)
M14
  GI50: > 100 µM (inactive)
MCF7
  GI50: 41.1 µM (inactive)
MDA-MB-231
  GI50: > 100 µM (inactive)
MDA-MB-435
  GI50: 38.1 µM (inactive)
MDA-N
  GI50: > 100 µM (inactive)
MOLT-4
  GI50: > 100 µM (inactive)
Malme-3M
  GI50: 49.8 µM (inactive)
NCI-H226
  GI50: > 100 µM (inactive)
NCI-H23
  GI50: 30.1 µM (inactive)
NCI-H460
  GI50: 81.3 µM (inactive)
NCI-H522
  GI50: 32 µM (inactive)
NCI/ADR-RES
  GI50: 61.8 µM (inactive)
OVCAR-3
  GI50: 34 µM (inactive)
OVCAR-4
  GI50: 27.4 µM (inactive)
OVCAR-5
  GI50: > 100 µM (inactive)
PC-3
  GI50: 45.7 µM (inactive)
RPMI-8226
  GI50: > 100 µM (inactive)
RXF 393
  GI50: 12.9 µM (inactive)
SF-268
  GI50: 24 µM (inactive)
SF-295
  GI50: 53.2 µM (inactive)
SF-539
  GI50: 24.9 µM (inactive)
SK-MEL-28
  GI50: > 100 µM (inactive)
SK-MEL-2
  GI50: 54.3 µM (inactive)
SK-MEL-5
  GI50: 37.4 µM (inactive)
SK-OV-3
  GI50: 40.8 µM (inactive)
SN12C
  GI50: > 100 µM (inactive)
SNB-19
  GI50: 24.7 µM (inactive)
SNB-75
  GI50: 18.1 µM (inactive)
SR
  GI50: 29.3 µM (inactive)
SW-620
  GI50: > 100 µM (inactive)
T47D
  GI50: 10.9 µM (inactive)
TK-10
  GI50: 23.5 µM (inactive)
U-251
  GI50: 28.1 µM (inactive)
UACC-257
  GI50: 79.3 µM (inactive)
UACC-62
  GI50: 64.6 µM (inactive)
UO-31
  GI50: > 100 µM (inactive)

## COc1cc(/C=C2\N=C(c3ccccc3)N(/N=C/c3cc4cc(C)ccc4nc3Cl)C2=O)cc(OC)c1OC
786-0
  GI50: 60.4 µM (inactive)
A498
  GI50: 28.1 µM (inactive)
A549
  GI50: 36.4 µM (inactive)
ACHN
  GI50: 34.2 µM (inactive)
BT-549
  GI50: 52.2 µM (inactive)
CAKI-1
  GI50: 61.7 µM (inactive)
COLO 205
  GI50: 24.5 µM (inactive)
DU-145
  GI50: 30.4 µM (inactive)
EKVX
  GI50: 54.5 µM (inactive)
HCC 2998
  GI50: 18.8 µM (inactive)
HCT-116
  GI50: 33.7 µM (inactive)
HCT-15
  GI50: 32.4 µM
HL-60
  GI50: 10.5 µM (inactive)
HOP-62
  GI50: 58.7 µM (inactive)
HOP-92
  GI50: 54.6 µM (inactive)
HT-29
  GI50: 38.4 µM (inactive)
Hs-578T
  GI50: 29.4 µM (inactive)
IGROV-1
  GI50: 33.3 µM (inactive)
K562
  GI50: 35 µM (inactive)
KM12
  GI50: 31.8 µM (inactive)
LOX IMVI
  GI50: 32.1 µM (inactive)
M14
  GI50: 39.4 µM (inactive)
MCF7
  GI50: 27.4 µM (inactive)
MDA-MB-231
  GI50: 23.1 µM (inactive)
MDA-MB-435
  GI50: 15.8 µM (inactive)
MDA-N
  GI50: 21 µM (inactive)
MOLT-4
  GI50: 20.6 µM (inactive)
NCI-H460
  GI50: 29.4 µM (inactive)
NCI/ADR-RES
  GI50: 28 µM (inactive)
OVCAR-3
  GI50: 26.5 µM (inactive)
OVCAR-4
  GI50: 37.5 µM (inactive)
OVCAR-5
  GI50: > 100 µM (inactive)
OVCAR-8
  GI50: 35.1 µM (inactive)
PC-3
  GI50: 18.1 µM (inactive)
RPMI-8226
  GI50: 20.5 µM (inactive)
SF-268
  GI50: 35.6 µM (inactive)
SF-295
  GI50: 44.2 µM (inactive)
SF-539
  GI50: 23.4 µM (inactive)
SK-MEL-28
  GI50: 91.6 µM (inactive)
SK-MEL-2
  GI50: 17.9 µM (inactive)
SK-MEL-5
  GI50: 37.9 µM (inactive)
SK-OV-3
  GI50: 59.8 µM (inactive)
SN12C
  GI50: 61.8 µM (inactive)
SNB-19
  GI50: 64.7 µM (inactive)
SNB-75
  GI50: 17.1 µM (inactive)
SR
  GI50: 19.4 µM (inactive)
SW-620
  GI50: 41.2 µM (inactive)
T47D
  GI50: 18 µM (inactive)
TK-10
  GI50: 37.8 µM (inactive)
U-251
  GI50: 18.9 µM (inactive)
UACC-257
  GI50: 46.5 µM (inactive)
UACC-62
  GI50: 32.1 µM (inactive)
UO-31
  GI50: 48.6 µM (inactive)

## CN/C(=N\c1ccc(OC)c2ccccc12)SC
786-0
  GI50: > 10 µM (inactive)
A549
  GI50: > 10 µM (inactive)
ACHN
  GI50: > 10 µM (inactive)
BT-549
  GI50: > 10 µM (inactive)
CAKI-1
  GI50: > 10 µM (inactive)
CCRF-CEM
  GI50: > 10 µM (inactive)
COLO 205
  GI50: > 10 µM (inactive)
DU-145
  GI50: > 10 µM (inactive)
HCC 2998
  GI50: > 10 µM (inactive)
HCT-116
  GI50: > 10 µM (inactive)
HCT-15
  GI50: > 10 µM
HL-60
  GI50: > 10 µM (inactive)
HOP-62
  GI50: > 10 µM (inactive)
HOP-92
  GI50: > 10 µM (inactive)
HT-29
  GI50: > 10 µM (inactive)
Hs-578T
  GI50: > 10 µM (inactive)
IGROV-1
  GI50: > 10 µM (inactive)
K562
  GI50: > 10 µM (inactive)
KM12
  GI50: > 10 µM (inactive)
LOX IMVI
  GI50: > 10 µM (inactive)
M14
  GI50: > 10 µM (inactive)
MCF7
  GI50: > 10 µM (inactive)
MDA-MB-231
  GI50: > 10 µM (inactive)
MDA-MB-435
  GI50: > 10 µM (inactive)
MDA-N
  GI50: > 10 µM (inactive)
MOLT-4
  GI50: > 10 µM (inactive)
Malme-3M
  GI50: > 10 µM (inactive)
NCI-H23
  GI50: > 10 µM (inactive)
NCI-H522
  GI50: > 10 µM (inactive)
NCI/ADR-RES
  GI50: > 10 µM (inactive)
OVCAR-3
  GI50: > 10 µM (inactive)
OVCAR-4
  GI50: > 10 µM (inactive)
OVCAR-5
  GI50: 2.86 µM (inactive)
OVCAR-8
  GI50: > 10 µM (inactive)
PC-3
  GI50: > 10 µM (inactive)
RPMI-8226
  GI50: > 10 µM (inactive)
SF-268
  GI50: > 10 µM (inactive)
SF-295
  GI50: 7.43 µM (inactive)
SF-539
  GI50: > 10 µM (inactive)
SK-MEL-28
  GI50: > 10 µM (inactive)
SK-MEL-5
  GI50: > 10 µM (inactive)
SK-OV-3
  GI50: > 10 µM (inactive)
SN12C
  GI50: > 10 µM (inactive)
SNB-19
  GI50: > 10 µM (inactive)
SNB-75
  GI50: > 10 µM (inactive)
SR
  GI50: > 10 µM (inactive)
SW-620
  GI50: > 10 µM (inactive)
T47D
  GI50: > 10 µM (inactive)
TK-10
  GI50: > 10 µM (inactive)
U-251
  GI50: > 10 µM (inactive)
UACC-257
  GI50: > 10 µM (inactive)
UACC-62
  GI50: > 10 µM (inactive)
